Measured values: patent US6750256B1, “Use of aromatic aldehydes as insecticides” (Proguard, Inc., priority 1994, dated 2004)

Experiments:
[1] = test system: hard ticks (Ixodea pacificus and Dermacentor albipietus); assay: Tick treated filter paper test, hard ticks; format: in vivo
Experimental: (§1) In a double blind experiment, filter papers (90 mm) (Whatman) were treated to uniform saturation with 1 ml of test formula and placed in 90 mm petri dishes. Ten arachnids were placed in each petri dish and the dish closed. Observations of mortality were made at 30 minutes, 1 hour, 3 hours, 6 hours, 12 hours and 24 hours. The cinnamic aldehyde concentrations varied from 10-50,000 ppm in a vehicle of 2% Tween 80, 6% NaHCO3. The effect of vehicle alone or H2O (HPLC) was also tested. In separate experiments, the effects of the components of the vehicle were evaluated in comparison to water.

[2] = test system: soft tick (Ornithodoros coriaceus); assay: Tick treated filter paper test, soft ticks; format: in vivo
Experimental: as §1, with “Observations of mortality were made at 30 minutes, 1 hour, 3 hours, 6 hours, 12 hours and 24 hours.” left out

melon aphids = assay: Melon aphid whole plant spray with cinnamaldehyde and saponin; format: in vivo, Aphis gossypii Glover; settings: whole plant sprayed to drip
Experimental: Whole nonflowering potted chrysanthemum plants were used to assay melon aphids. Two plants were treated for each treatment and two leaves, one from the top of the plant and one from the bottom of the plant, were sampled to determine the number of living and dead melon aphids. Three treatments were applied: 1.0% CNMA plus 0.5% saponin, 0.5% CNMA plus 0.25% saponin, and 0.5% saponin only. The whole plants were sprayed to “drip” on both the top and bottom sides of leaves. Results are presented as the proportion of aphids found dead. Results were as follows: control plant (0.5% saponin only) 14.8% ±4.5; 0.5% CNMA 48.3±16.1; 1.0% CNMA 72.0±11.2.

[3] = test system: thrips insects (Frankliniella occidentalis); assay: Residual activity on treated filter paper against thrips; format: in vivo; settings: rehydrated 24 and 72 hours after spraying, thrips exposed one hour
Experimental: In the first experiment, two ml of two concentrations of CNMA (0.3 and 1%) were sprayed on filter paper (Whatman). As a negative control, two ml of water was also sprayed on filter paper. Twenty-four hours later, two ml of water were sprayed on treatment and control filter paper, which were then dried for 30 min. Approximately 30 thrips insects (Frankliniella occidentalis) were introduced onto the treated filter papers and the number of F. occidentalis were observed after one hour. Mean mortality was calculated for each treatment. After 72 hours, the treated filter papers were flipped over and only the negative control filter paper and the filter paper treated with 1% CNMA were sprayed with 2 ml of water and allowed to dry for 30 minutes. Approximately 30 thrips were introduced onto the two treated filter papers and after one hour the number of dead F. occidentalis were observed and the mean mortality calculated for each treatment. A similar assay was conducted using AHCNMA. Mean mortality was higher for rehydrated filter papers compared to non-rehydrated filter papers over time.

[4] = test system: adult carpenter ants (Camponotus pennsylvanicus); assay: Carpenter ant spray test; format: in vivo
Experimental: The effect of cinnamic aldehyde on adult carpenter ants (Camponotus pennsylvanicus) was evaluated as follows. Twenty adult ants were placed in a 20 liter stainless steel pail with lid. The test formulations were prepared and used within one hour and were shaken immediately before spraying the insects. 8 ml of test solution was sprayed with a fine spray (Gilmour hand sprayer). […] Cinnamic aldehyde (2%, 20,000 ppm) in 2% Tween 80 and 6% NaHCO3 in water gave 100% mortality at all time points. Vehicle in 2% Tween 80 and 6% NaHCO3. Raid (active ingredients: permethrin, pyrethrins and PBO) was used as a positive control and gave 90% mortality at 0.5 hr with 100% mortality at all other time points.

[5] = 10 ppm in 2% Tween 80 and 6% NaHCO3
[6] = 100 ppm in 2% Tween 80 and 6% NaHCO3
[7] = 2,500 ppm in 2% Tween 80 and 6% NaHCO3
[8] = 5,000 ppm in 2% Tween 80 and 6% NaHCO3
[9] = 12,500 ppm in 2% Tween 80 and 6% NaHCO3
[10] = 25,000 ppm in 2% Tween 80 and 6% NaHCO3

O=C/C=C/c1ccccc1 [CNMA, cinnamic aldehyde]
mortality ([1]; 2500 ppm in vehicle (2% Tween 80, 6% NaHCO3), in 24 hours, preliminary experiments): 100% | effect on mortality ([1]; concentrations below 2500 in vehicle): no effect on mortality | Number Dead 24 Hours (#/30) [2, 5]: 0 #/30 | Number Dead 120 Hours (#/30) [2, 5]: 0 #/30 | Number Dead 24 Hours (#/30) [2, 6]: 0 #/30 | Number Dead 120 Hours (#/30) [2, 6]: 0 #/30 | Number Dead 24 Hours (#/30) [2, 7]: 2/30 | Number Dead 120 Hours (#/30) [2, 7]: 6/30 | Number Dead 24 Hours (#/30) [2, 8]: 3/30 | Number Dead 120 Hours (#/30) [2, 8]: 6/30 | Number Dead 24 Hours (#/30) [2, 9]: 5/30 | Number Dead 120 Hours (#/10) [2, 9]: 10/10 | Number Dead 120 Hours (#/30) [2, 9]: 6/30 | Number Dead 24 Hours (#/30) [2, 10]: 7/30 | Number Dead 120 Hours (#/10) [2, 10]: 10/10 | Number Dead 120 Hours (#/30) [2, 10]: 21/30 | Number Dead 120 Hours (#/10) ([2]; 30,000 ppm in 2% Tween 80 and 6% NaHCO3): 10/10 | Number Dead 120 Hours (#/10) ([2]; 35,000 ppm in 2% Tween 80 and 6% NaHCO3): 10/10 | Number Dead 120 Hours (#/10) ([2]; 40,000 ppm in 2% Tween 80 and 6% NaHCO3): 10/10 | Number Dead 120 Hours (#/10) ([2]; 45,000 ppm in 2% Tween 80 and 6% NaHCO3): 10/10 | Number Dead 120 Hours (#/10) ([2]; 50,000 ppm in 2% Tween 80 and 6% NaHCO3): 10/10 | mortality at 12500 ppm ([2]; Ornithodoros coriaceus): 100% | proportion of aphids found dead (melon aphids; 0.5% CNMA plus […] saponin): 48.3±16.1% | proportion of aphids found dead (melon aphids; 1.0% CNMA plus 0.5% saponin): 72.0±11.2% | residual activity in words [3]: residual activity | mortality at 20000 ppm [4]: 100%
